This note sets out measurements from patent EP2407164A1, “Copper II complexes of phenanthroline and their use in cancer treatment” (Dublin Institute of Technology Intellectual Property Ltd, priority 2010, dated 2012).

Series [1] is described as follows: Solubility in organic solvents. Particulars: DMSO/DMF.
The subject of another series is DU145. In words: MTT cytotoxicity assay, complexes 1-6. Particulars: DU145 prostate cancer, 24 hr exposure, mean of three independent experiments +/- standard error. The format is cell-based, Human. How it is done:
(§1) Human colon cancer cell line, HT29 (passage 17 to 30, ATCC, USA), was grown in McCoys's 5a medium supplemented with 2mM L-glutamine and fetal bovine serum (FBS) 10% and containing 100U/ ml penicillin and 100µg / ml streptomycin at 37°C in a humidified atmosphere with 5% CO2 Human Breast Cancer cell line, MCF-7 (passage 16 to 26, ATCC, USA) was grown in Eagle's minimum essential medium containing 2mM L-glutamine, 100U/ ml penicillin,100µg/ ml streptomycin, FBS (10%), 1mM sodium pyruvate and 1% (v/v) non essential amino acids at 37°C in a humidified atmosphere with 5% CO2 Human prostate cancer cell line, DU145 (passage 12 to 29, ATCC, USA) was grown in Eagle's minimum essential medium containing 2mM L-glutamine, 100U/ ml penicillin, 100µg/ ml streptomycin, FBS (10%), 1mM sodium pyruvate and 1% (v/v) non essential amino acids at 37°C in a humidified atmosphere with 5% CO2. All drugs were tested by MTT assay following 24-hour exposure of cells to each compound. Each value represents the mean IC50 of three independent experiments +/- standard error.
(§2) MTT Assay. This method is based on the reduction of the tetrazolium salt, methylthiazolyldiphenyl-tetrazolium bromide (MTT) into a crystalline blue formazan product by the cellular oxidoreductases of viable cells. The resultant formazan crystal formation is proportional to the number of viable cells. Cells were seeded at 4x 10^5 cells/ml in 96-well plates and incubated at 37°C in 5% CO2 for 24 hours. Cells were treated with a four log range of concentration of the test compounds in triplicate from 0.1 to 500 µM or with a solvent control (0.5% DMSO) in complete medium. Following 24 h incubation, cells were incubated with 20 µl of MTT (5 mg/ml) in 0.1 M PBS, pH 7.4 at 37 °C in a humid atmosphere with 5% CO2 for 4 h. Media was then gently aspirated from test cultures and 100 µL of dimethyl sulphoxide (DMSO) was added to all wells. The plates were then shaken for 2 min and the absorbance was read at 550 nm in a Varioscan plate reader. The IC50 was defined as the concentration of test compound required to reduce the absorbance of the MTT-formazan crystals by 50%, indicating 50% cell deactivation.
Background: Tetrazolium assays rely on reduction of a dye to a coloured formazan, in cell work by metabolically active cells.

In the next series the test system is MCF-7. In words: MTT cytotoxicity assay, complexes 1-6. The format is cell-based, Human. Particulars: MCF-7 breast cancer, 24 hr exposure, mean of three independent experiments +/- standard error. As to the method:
as §1, §2

The subject of series [2] is HT29. In words: MTT cytotoxicity assay, complexes 1-6. In kind it is cell-based, Human. Particulars: HT29 colon cancer, 24 hr exposure, mean of three independent experiments +/- standard error. How it is done: as §1, §2
A further series relates to pUC18. In words: Nuclease activity: relaxation of supercoiled plasmid DNA, agarose gel. In kind it is biochemical. As to conditions: 37 °C; for concentration at which nuclease activity is seen: supercoiled pUC18, 5 hours, no added H2O2, oxidant or reductant. How it is done: Nuclease Activity. Reactions were carried out in a total volume of 20 µL in 0.1 M cacodylate buffer (pH = 6.0) with either 0.5, 2.5, 10 µL of 40 µM complex or 2, 5, 10 µL of 200 µM of complex, which were initially prepared in DMF, then diluted in cacodylate buffer (in which they dissolved), with 1 µL of 0.25 µg/µL pUC18 in cacodylate buffer. The resulting mixtures contained 1, 5, 10, 20, 50 and 100 µM of complex and […] of pUC18. Samples were incubated for 5 hr at 37°C. Quench buffer (3 µL; 0.25% bromophenolblue, 0.25% xylene cyanole and 30% glycerol) was then added and samples were loaded onto agarose gel (0.8%) containing 1.5 µL/100 mL of solution of GelRed™ (10,000X). Electrophoresis was completed at 80 V for 2 hr in 1XTAE buffer.

In another series the test system is poly[d(G-C)]2. In words: DNA-ethidium fluorescence quenching. The format is binding. As to conditions: Q = equivalent concentration required to reduce fluorescence by 50%; 2.0 µM EtBr, 20 µM DNAp, 2 mM NaOAc buffer, 9.3 mM NaCl, pH 5.0. How it is done:
(§3) DNA-Ethidium Fluorescence Quenching. Working solutions containing 20 µM poly[d(AT)]2 (ε260 = 13,100 M(bp)^-1 cm^-1), poly[d(G-C)]2 (ε260 = 16,800 M(bp)^-1 cm^-1) and CT-DNAp (ε260 = 12,824 M(bp)^-1 cm^-1) along with 2.0 µM Et in NaOAc buffer (2 mM NaOAc, 9.3 mM NaCl, 0.1 mM Na2EDTA, pH = 5.0) were prepared. Subsequent experimental steps are identical to the displacement experiment with the exception that a fluorescence reading of 200 arbitrary units with measurements being recorded over a 20-s interval was used. From a plot of the fluorescence vs added drug concentration, the Q values is given by the concentration required to effect 50% removal of the initial fluorescence.

The test system of another series is poly[d(A-T)]2. In words: DNA-ethidium fluorescence quenching. The format is binding. As to conditions: Q = equivalent concentration required to reduce fluorescence by 50%; 2.0 µM EtBr, 20 µM DNAp, 2 mM NaOAc buffer, 9.3 mM NaCl, pH 5.0. As to the method:
as §3

The next series relates to SK-OV-3. In words: MTT cytotoxicity assay, complexes 1-6. The format is cell-based, Human. Particulars: SK-OV-3 ovarian cancer, 24 hr exposure, mean of three independent experiments +/- standard error. How it is done: as §2
Cu(II) bis-phen complexes 4-6 display rapid, low micomolar toxicities against all tumor lines. […] It should be noted that 6 is dinuclear and so contains two active copper units, which may explain this heightened potency.

The test system of series [3] is CT-DNA. In words: Competitive ethidium bromide displacement. In kind it is binding, calf. Particulars: for Kapp (apparent binding constant): Kapp = Ke x 1.26/C50 where Ke = 9.5 x 10^6 M(bp)^-1; for Kapp (apparent binding constant) / IC50: 1.2 µM EtBr, 1 µM CT-DNAp, pH 7.0; for IC50: final volume 2 mL, 10 mM TES, 0.1 mM Na2EDTA, read-out: C50 = concentration required to reduce fluorescence by 50%. As to the method:
Competitive Ethidium Displacement. […] Complexes 4-6, actinomycin D, pentamidine isethionate were prepared at 2.0 mM in DMSO. Two millilitres of DNA-Et solution were placed in a 10-mm quartz cuvet (3 mL) and positioned in a temperature controlled (20°C) spectrofluorometer (Perkin Elmer LS55B Luminescence Spectrometer). Excitation and emission wavelengths were set to 546 and 595 nm, respectively. After thermal equilibrium was established the emission and excitation slits were modified to give a fluorescence reading of 50 arbitrary units with measurements being recorded over a 20-s interval. An aliquot of complex or drug solution was taken (0.5 - 10 µL), was added to the cuvette and after equilibration the fluorescence reading was recorded. Repeated aliquots were added until the fluorescence was 20-40% of the initial control. Triplicate titrations were preformed and the apparent binding constants were calculated using Kapp = Ke x 1.26/C50 where Ke = 9.5 x 10^6 M(bp)^-1.

For series [4], the system named is four Human-derived tumor lines. In words: MTT assay, summary statements over the four tumor lines. In kind it is cell-based. As to conditions: MCF-7, DU145, SK-OV-3, HT29, 24 hours. How it is done: as §1
MTT Assay. This method is based on the reduction of the tetrazolium salt, methylthiazolyldiphenyl-tetrazolium bromide (MTT) into a crystalline blue formazan product by the cellular oxidoreductases of viable cells. […] The plates were then shaken for 2 min and the absorbance was read at 550 nm in a Varioscan plate reader. […]

Series [5] has as its system CT-DNA. In words: DNA-ethidium fluorescence quenching. The format is binding, calf. Particulars: Q = equivalent concentration required to reduce fluorescence by 50%; 2.0 µM EtBr, 20 µM DNAp, 2 mM NaOAc buffer, 9.3 mM NaCl, pH 5.0. As to the method:
as §3

The subject of series [6] is HT29. In words: MTT cytotoxicity assay, complex 7. The format is cell-based, Human. As to conditions: HT29 colon cancer line, 24 hr. How it is done: (§4) For cytotoxicity evaluation HT29, SW480 and SW620 cell lines were employed; all the cell lines were grown in RPMI 1640 media (Fischer). All media were supplemented with 10% foetal bovine serum (FBS) and 45 IU/ml penicillin and 45 µg/ml streptomycin and cells were maintained at 37 °C in a 5% CO2 humidified incubator.
(§5) For sterilisation samples were filtered with a 0.2 micron cellulose acetate filter. For cytotoxicological evaluation all samples were prepared fresh on the day of exposure. A stock concentration of test compound was prepared in the exposure media (10% DMEM F-12) necessary for the cell line under test. This sample was vortexed to ensure a uniform dispersion of the compound under test.
For cytotoxicity assays cells were seeded in 96-well microplates (Nunc, Denmark) at a density of 1 x 10^5 cells/ml for the 24 hr test, 5 x10^4 cells/ml for the 48 hr test and 3 x 10^4 cells/ml for the 96 hr test. […] After 24 h of cell attachment, plates were washed with 100 µl/well phosphate buffered saline (PBS) and the cells were treated with increasing concentrations of each compound for 24 h. […] The plate was shaken at 240 rpm for 10 min and the absorbance was measured at 570 nm.
At least three independent experiments were conducted in triplicate for each cell line and toxicity endpoint. […] Differences between samples and the control were evaluated using the statistical analysis package SPSS 14.0. […]

For another series, the system named is SW620. In words: MTT cytotoxicity assay, complex 7. The format is cell-based. Particulars: SW620 (Dukes' C) colon cancer line, 24 hr. How it is done:
as §4, §5
(§6) For cytotoxicity assays cells were seeded in 96-well microplates (Nunc, Denmark) at a density of 1 x 10^5 cells/ml for the 24 hr test, 5 x10^4 cells/ml for the 48 hr test and 3 x 10^4 cells/ml for the 96 hr test. […] After 24 h of cell attachment, plates were washed with 100 µl/well phosphate buffered saline (PBS) and the cells were treated with increasing concentrations of each compound for 24 h. Six replicate wells were used for each control and test concentration per microplate. Following the desired time of compound exposure, control medium or test exposures were removed, the cells were rinsed with PBS and 100 µl of fresh medium (without FBS or supplements) was added to each well. 10 µl of MTT (5 mg/ml) prepared in PBS was then added to each well and the plates were incubated for 3 h at 37°C in a 5% CO2 humidified incubator. After this incubation period the medium was discarded, the cells were washed with 100 µl of PBS and 100 µl of DMSO was added to each well to extract the dye. The plate was shaken at 240 rpm for 10 min and the absorbance was measured at 570 nm.
(§7) At least three independent experiments were conducted in triplicate for each cell line and toxicity endpoint. […] Control values were set as 100%. Differences between samples and the control were evaluated using the statistical analysis package SPSS 14.0. Statistically significant differences were set at p≤0.05.

The test system of a further series is SW480. In words: MTT cytotoxicity assay, complex 7. The format is cell-based. Particulars: SW480 (Dukes' B) colon cancer line, 24 hr. As to the method:
as §4, §5, §6, §7

Take “[{Cu{(phen)2}2(terph)](terph)10H2O.3EtOH [Complex 6]”: the Solubility entry in series [1] was “forms only suspensions in DMSO/DMF”. In addition, the IC50 in the series with DU145 was determined as 5.7 ± 0.2 µM; in the series on MCF-7 it was 7.9 ± 0.4 µM; with HT29 [2], 5.4 ± 0.3 µM; in the series on poly[d(G-C)]2, 10.3 µM; with poly[d(A-T)]2 it was 8.55 µM; in the series with SK-OV-3, 6.7 ± 0.4 µM. Moreover, the IC50 in the series on CT-DNA [3] came out at 39.4 µM. Further, in the series with pUC18, the “concentration at which nuclease activity is seen” value was in the range of 1 to 5 µM. The “Kapp (apparent binding constant)” value with CT-DNA [3] is given as 3.04x10^5 M(bp)^-1. Moreover, the “cytotoxicity against all tumor lines, in words” value in series [4] is listed as “best broad-spectrum activity”.

For “[Cu2(oda)(phen)4](ClO4)2.2.67H2O.C2H5OH [Complex 7]”, the IC50 worked out at 22.6 µM in the series with CT-DNA [5] and 46.9 µM in the series on CT-DNA [3]. For the same substance, the “'self-activating' nuclease activity (relaxation of SC pUC18), in words” value in the series with pUC18 (1-100 µM complex, 5 hours, no added H2O2 or reductant) was “highly efficient in the cleavage of plasmid DNA”. Besides, the “concentration at which nuclease activity is seen” value with pUC18 is given as not below 10 µM. Moreover, the “Activity LD50” value with HT29 [6] stood at 9.61 µM; in the series with SW620 it was 31 µM; with SW480 it was 11.3 µM. Moreover, the “Kapp (apparent binding constant)” value in the series with CT-DNA [3] is reported as 2.55x10^5 M(bp)^-1. Besides, the “DNA binding ability, in words” value with CT-DNA [3] (competitive EtBr displacement with CT-DNA) was “efficient ability to bind with calf thymus DNA”.
